ChEMBL document CHEMBL1201862, “PubChem BioAssay data set” (2004)
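Growth conditions: 96-well plates. Treatment: test compound, 48 hours, 5 concentrations. Analysis: linear interpolation between bracketing concentrations; unreached endpoints set to highest concentration. At the GI50, growth is halved.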 Calls of active or inactive are those of the source. No stated cut-off is given here; in the data, active = GI50 up to about 1.1 µM and inactive = higher.

Experiments:
Experiment in all cases: NCI tumour cell line growth inhibition, 48 h
786-0 = tested on: 786-0
A498 = tested on: A498
A549 = tested on: A549
ACHN = tested on: ACHN
BT-549 = tested on: BT-549
CAKI-1 = tested on: CAKI-1
CCRF-CEM = tested on: CCRF-CEM
COLO 205 = tested on: COLO 205
DU-145 = tested on: DU-145
EKVX = tested on: EKVX
HCT-116 = tested on: HCT-116
HCT-15 = tested on: HCT-15
HL-60 = tested on: HL-60
HOP-62 = tested on: HOP-62
HOP-92 = tested on: HOP-92
HT-29 = tested on: HT-29
Hs-578T = tested on: Hs-578T
IGROV-1 = tested on: IGROV-1
KM12 = tested on: KM12
LOX IMVI = tested on: LOX IMVI
M14 = tested on: M14
MCF7 = tested on: MCF7
MDA-MB-231 = tested on: MDA-MB-231
MDA-MB-435 = tested on: MDA-MB-435
MDA-N = tested on: MDA-N
MOLT-4 = tested on: MOLT-4
Malme-3M = tested on: Malme-3M
NCI-H226 = tested on: NCI-H226
NCI-H23 = tested on: NCI-H23
NCI-H460 = tested on: NCI-H460
NCI-H522 = tested on: NCI-H522
OVCAR-3 = tested on: OVCAR-3
OVCAR-4 = tested on: OVCAR-4
OVCAR-5 = tested on: OVCAR-5
OVCAR-8 = tested on: OVCAR-8
PC-3 = tested on: PC-3
SF-268 = tested on: SF-268
SF-295 = tested on: SF-295
SF-539 = tested on: SF-539
SK-MEL-28 = tested on: SK-MEL-28
SK-MEL-2 = tested on: SK-MEL-2
SK-MEL-5 = tested on: SK-MEL-5
SK-OV-3 = tested on: SK-OV-3
SN12C = tested on: SN12C
SNB-19 = tested on: SNB-19
SNB-75 = tested on: SNB-75
SW-620 = tested on: SW-620
T47D = tested on: T47D
TK-10 = tested on: TK-10
U-251 = tested on: U-251
UACC-257 = tested on: UACC-257
UACC-62 = tested on: UACC-62
UO-31 = tested on: UO-31
HCC 2998 = tested on: HCC 2998
K562 = tested on: K562
NCI/ADR-RES = tested on: NCI/ADR-RES
RPMI-8226 = tested on: RPMI-8226
RXF 393 = tested on: RXF 393
SR = tested on: SR

## Cc1cc2ncc3c(=O)n(NS(=O)(=O)c4ccc(N)cc4)ccc3n2n1
786-0
  GI50: > 100 µM (inactive)
A498
  GI50: 70.8 µM (inactive)
A549
  GI50: > 100 µM (inactive)
ACHN
  GI50: > 100 µM (inactive)
BT-549
  GI50: > 100 µM (inactive)
CAKI-1
  GI50: > 100 µM (inactive)
CCRF-CEM
  GI50: > 100 µM (inactive)
COLO 205
  GI50: > 100 µM (inactive)
DU-145
  GI50: > 100 µM (inactive)
EKVX
  GI50: > 100 µM (inactive)
HCT-116
  GI50: > 100 µM (inactive)
HCT-15
  GI50: > 100 µM
HL-60
  GI50: > 100 µM (inactive)
HOP-62
  GI50: > 100 µM (inactive)
HOP-92
  GI50: 54.2 µM (inactive)
HT-29
  GI50: > 100 µM (inactive)
Hs-578T
  GI50: > 100 µM (inactive)
IGROV-1
  GI50: > 100 µM (inactive)
KM12
  GI50: > 100 µM (inactive)
LOX IMVI
  GI50: > 100 µM (inactive)
M14
  GI50: > 100 µM (inactive)
MCF7
  GI50: > 100 µM (inactive)
MDA-MB-231
  GI50: > 100 µM (inactive)
MDA-MB-435
  GI50: > 100 µM (inactive)
MDA-N
  GI50: > 100 µM (inactive)
MOLT-4
  GI50: > 100 µM (inactive)
Malme-3M
  GI50: 36.3 µM (inactive)
NCI-H226
  GI50: > 100 µM (inactive)
NCI-H23
  GI50: > 100 µM (inactive)
NCI-H460
  GI50: > 100 µM (inactive)
NCI-H522
  GI50: > 100 µM (inactive)
OVCAR-3
  GI50: > 100 µM (inactive)
OVCAR-4
  GI50: > 100 µM (inactive)
OVCAR-5
  GI50: > 100 µM (inactive)
OVCAR-8
  GI50: > 100 µM (inactive)
PC-3
  GI50: > 100 µM (inactive)
SF-268
  GI50: > 100 µM (inactive)
SF-295
  GI50: > 100 µM (inactive)
SF-539
  GI50: > 100 µM (inactive)
SK-MEL-28
  GI50: > 100 µM (inactive)
SK-MEL-2
  GI50: > 100 µM (inactive)
SK-MEL-5
  GI50: > 100 µM (inactive)
SK-OV-3
  GI50: > 100 µM (inactive)
SN12C
  GI50: > 100 µM (inactive)
SNB-19
  GI50: > 100 µM (inactive)
SNB-75
  GI50: > 100 µM (inactive)
SW-620
  GI50: > 100 µM (inactive)
T47D
  GI50: > 100 µM (inactive)
TK-10
  GI50: > 100 µM (inactive)
U-251
  GI50: > 100 µM (inactive)
UACC-257
  GI50: > 100 µM (inactive)
UACC-62
  GI50: > 100 µM (inactive)
UO-31
  GI50: > 100 µM (inactive)

## COc1ccc(/C=C2\C[C@H]3[C@@H]4CC=C5C[C@@H](OC(C)=O)CC[C@]5(C)[C@H]4CC[C@]3(C)\C2=N\O)cc1OC
786-0
  GI50: 8.87 µM (inactive)
A498
  GI50: 19.3 µM (inactive)
A549
  GI50: 5.12 µM (inactive)
ACHN
  GI50: 8 µM (inactive)
BT-549
  GI50: > 100 µM (inactive)
CAKI-1
  GI50: 11.2 µM (inactive)
CCRF-CEM
  GI50: 7.5 µM (inactive)
COLO 205
  GI50: 8.77 µM (inactive)
DU-145
  GI50: 39.4 µM (inactive)
EKVX
  GI50: 3.01 µM (inactive)
HCC 2998
  GI50: 16.2 µM (inactive)
HCT-116
  GI50: 8.05 µM (inactive)
HCT-15
  GI50: 9.44 µM
HL-60
  GI50: 5.57 µM (inactive)
HOP-62
  GI50: 31.7 µM (inactive)
HOP-92
  GI50: 3.89 µM (inactive)
HT-29
  GI50: 5.74 µM (inactive)
Hs-578T
  GI50: > 100 µM (inactive)
IGROV-1
  GI50: 53.3 µM (inactive)
K562
  GI50: 5.19 µM (inactive)
KM12
  GI50: 9.27 µM (inactive)
LOX IMVI
  GI50: 13.3 µM (inactive)
M14
  GI50: 14.7 µM (inactive)
MCF7
  GI50: 6.3 µM (inactive)
MDA-MB-435
  GI50: 20.7 µM (inactive)
MDA-N
  GI50: 10.4 µM (inactive)
MOLT-4
  GI50: 3.6 µM (inactive)
Malme-3M
  GI50: 53 µM (inactive)
NCI-H226
  GI50: 9.2 µM (inactive)
NCI-H23
  GI50: 29.2 µM (inactive)
NCI-H460
  GI50: 7.03 µM (inactive)
NCI-H522
  GI50: 21.6 µM (inactive)
NCI/ADR-RES
  GI50: 53.5 µM (inactive)
OVCAR-3
  GI50: 24.3 µM (inactive)
OVCAR-4
  GI50: 11.4 µM (inactive)
OVCAR-5
  GI50: 33.9 µM (inactive)
OVCAR-8
  GI50: 5.71 µM (inactive)
PC-3
  GI50: 18.8 µM (inactive)
RPMI-8226
  GI50: 4.86 µM (inactive)
RXF 393
  GI50: 7.4 µM (inactive)
SF-268
  GI50: > 100 µM (inactive)
SF-295
  GI50: 6.65 µM (inactive)
SF-539
  GI50: 31 µM (inactive)
SK-MEL-28
  GI50: > 100 µM (inactive)
SK-MEL-2
  GI50: 20.8 µM (inactive)
SK-MEL-5
  GI50: 2.71 µM (inactive)
SK-OV-3
  GI50: 68.1 µM (inactive)
SN12C
  GI50: 15.4 µM (inactive)
SNB-19
  GI50: 25 µM (inactive)
SNB-75
  GI50: > 100 µM (inactive)
SR
  GI50: 9.33 µM (inactive)
SW-620
  GI50: 84.9 µM (inactive)
T47D
  GI50: 5.38 µM (inactive)
UACC-257
  GI50: 14.9 µM (inactive)
UACC-62
  GI50: 30.5 µM (inactive)
UO-31
  GI50: 4.2 µM (inactive)

## Cc1ccc2c(c1)nc1n2C(c2c(F)cccc2F)SC1 (centres undefined)
786-0
  GI50: 32 µM (inactive)
A549
  GI50: 28.8 µM (inactive)
ACHN
  GI50: 35.2 µM (inactive)
BT-549
  GI50: > 10 µM (inactive)
CAKI-1
  GI50: 27.9 µM (inactive)
CCRF-CEM
  GI50: 21 µM (inactive)
COLO 205
  GI50: 32.3 µM (inactive)
EKVX
  GI50: 30.8 µM (inactive)
HCC 2998
  GI50: 32.1 µM (inactive)
HCT-116
  GI50: 28.4 µM (inactive)
HCT-15
  GI50: 27.9 µM
HOP-62
  GI50: 57 µM (inactive)
HT-29
  GI50: 28.8 µM (inactive)
Hs-578T
  GI50: 15.7 µM (inactive)
IGROV-1
  GI50: 50.6 µM (inactive)
K562
  GI50: 22.3 µM (inactive)
KM12
  GI50: 34.4 µM (inactive)
LOX IMVI
  GI50: 33.5 µM (inactive)
M14
  GI50: 51.1 µM (inactive)
MCF7
  GI50: 41.7 µM (inactive)
MDA-MB-231
  GI50: 41 µM (inactive)
MDA-MB-435
  GI50: 29.6 µM (inactive)
MDA-N
  GI50: 49.8 µM (inactive)
MOLT-4
  GI50: 14.1 µM (inactive)
Malme-3M
  GI50: 18.9 µM (inactive)
NCI-H226
  GI50: 29 µM (inactive)
NCI-H23
  GI50: 41.5 µM (inactive)
NCI-H460
  GI50: 52.8 µM (inactive)
NCI-H522
  GI50: 31.5 µM (inactive)
NCI/ADR-RES
  GI50: 31.8 µM (inactive)
OVCAR-3
  GI50: 55.8 µM (inactive)
OVCAR-4
  GI50: > 100 µM (inactive)
OVCAR-5
  GI50: 57.4 µM (inactive)
OVCAR-8
  GI50: 39.5 µM (inactive)
PC-3
  GI50: 20.7 µM (inactive)
RPMI-8226
  GI50: 34.4 µM (inactive)
RXF 393
  GI50: 27 µM (inactive)
SF-268
  GI50: 44.5 µM (inactive)
SF-295
  GI50: 35.1 µM (inactive)
SF-539
  GI50: 24.3 µM (inactive)
SK-MEL-28
  GI50: 41 µM (inactive)
SK-MEL-2
  GI50: 20 µM (inactive)
SK-MEL-5
  GI50: > 10 µM (inactive)
SK-OV-3
  GI50: 52.6 µM (inactive)
SN12C
  GI50: 39.4 µM (inactive)
SNB-19
  GI50: 64.1 µM (inactive)
SNB-75
  GI50: 8.51 µM (inactive)
SR
  GI50: 24.4 µM (inactive)
SW-620
  GI50: 31.9 µM (inactive)
T47D
  GI50: 41.6 µM (inactive)
TK-10
  GI50: 81.1 µM (inactive)
U-251
  GI50: 39.8 µM (inactive)
UACC-257
  GI50: 56.8 µM (inactive)
UACC-62
  GI50: > 10 µM (inactive)
UO-31
  GI50: 26.9 µM (inactive)
